Source: PubChem BioAssay AID248 (DTP/NCI, 2004)
Values joined by “and” are separate entries in the source; they are usually repeats but may differ in a detail not shown here. Identical values can stand only once. Inconclusive results and toxic doses are left out.

Test system: L1210 leukemia ip in BDF1 mice, survival T/C
Test: NCI In Vivo Anticancer Drug Screen. Data for tumor model L1210 Leukemia (intraperitoneal) in B6D2F1 (BDF1) mice
Settings: endpoint: mean survival time, higher = longer survival
How it was run: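 Read-out is survival time, reported as the treated-group measurement over the vehicle-control measurement.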

[1] = dose: 25.0 mg/kg/injection, schedule: Q04DX002 (ip), vehicle: saline
[2] = dose: 50.0 mg/kg/injection, schedule: Q01DX009 (ip), vehicle: saline
[3] = dose: 50.0 mg/kg/injection, schedule: Q04DX002 (ip), vehicle: saline
[4] = dose: 100.0 mg/kg/injection, schedule: Q04DX002 (ip), vehicle: saline
[5] = dose: 100.0 mg/kg/injection, schedule: Q04DX002 (ip), vehicle: saline with Tween-80
[6] = dose: 200.0 mg/kg/injection, schedule: Q04DX002 (ip), vehicle: saline with Tween-80
[7] = dose: 400.0 mg/kg/injection, schedule: Q04DX002 (ip), vehicle: saline with Tween-80
[8] = dose: 100.0 mg/kg/injection, schedule: Q01DX009 (ip), vehicle: saline with Tween-80
[9] = dose: 200.0 mg/kg/injection, schedule: Q01DX009 (ip), vehicle: saline with Tween-80
[10] = dose: 100.0 mg/kg/injection, schedule: Q04DX002 (ip), vehicle: Klucel (hydroxypropylcellulose) (HPC)
[11] = dose: 100.0 mg/kg/injection, schedule: Q04DX003 (ip), vehicle: saline with Tween-80
[12] = dose: 200.0 mg/kg/injection, schedule: Q04DX002 (ip), vehicle: Klucel (hydroxypropylcellulose) (HPC)
[13] = dose: 200.0 mg/kg/injection, schedule: Q04DX003 (ip), vehicle: saline with Tween-80
[14] = dose: 400.0 mg/kg/injection, schedule: Q04DX002 (ip), vehicle: Klucel (hydroxypropylcellulose) (HPC)
[15] = dose: 400.0 mg/kg/injection, schedule: Q04DX003 (ip), vehicle: saline with Tween-80
[16] = dose: 100.0 mg/kg/injection, schedule: Q01DX009 (ip), vehicle: Klucel (hydroxypropylcellulose) (HPC)
[17] = dose: 200.0 mg/kg/injection, schedule: Q01DX009 (ip), vehicle: Klucel (hydroxypropylcellulose) (HPC)
[18] = dose: 50.0 mg/kg/injection, schedule: Q04DX002 (ip), vehicle: Klucel (hydroxypropylcellulose) (HPC)
[19] = dose: 100.0 mg/kg/injection, schedule: Q01DX001 (ip), vehicle: saline
[20] = dose: 200.0 mg/kg/injection, schedule: Q01DX001 (ip), vehicle: saline
[21] = dose: 400.0 mg/kg/injection, schedule: Q01DX001 (ip), vehicle: saline
[22] = dose: 200.0 mg/kg/injection, schedule: Q04DX002 (ip), vehicle: saline
[23] = dose: 400.0 mg/kg/injection, schedule: Q04DX002 (ip), vehicle: saline
[24] = dose: 75.0 mg/kg/injection, schedule: Q01DX001 (ip), vehicle: saline
[25] = dose: 100.0 mg/kg/injection, schedule: Q04DX003 (ip), vehicle: acetone
[26] = dose: 200.0 mg/kg/injection, schedule: Q04DX003 (ip), vehicle: acetone

CC(C)(CO)CO
T/C (dose: 25.0 mg/kg/injection, schedule: Q01DX009 (ip), vehicle: saline): 97 % of control
T/C [1]: 113 % of control
T/C [2]: 108 % of control
T/C [3]: 102 % of control
T/C (dose: 100.0 mg/kg/injection, schedule: Q01DX009 (ip), vehicle: saline): 105 % of control
T/C [4]: 102 % of control and 103 % of control

CCCCCCCC(CCCCCC)CCCCCCC
T/C (dose: 50.0 mg/kg/injection, schedule: Q04DX002 (ip), vehicle: saline with Tween-80): 89 % of control
T/C [5]: 110 % of control
T/C [6]: 103 % of control
T/C [7]: 106 % of control

COc1ccc(C)cc1NC(=O)Oc1ccc2c(C)cc(=O)oc2c1
T/C [8]: 96 % of control
T/C [9]: 96 % of control

NC(=O)/C=C/C(=O)O
T/C (dose: 100.0 mg/kg/injection, schedule: Q01DX001 (ip), vehicle: saline with Tween-80): 97 % of control
T/C [8]: 98 % of control and 101 % of control
T/C [10]: 88 % of control
T/C [5]: 94 % of control and 97 % of control
T/C [11]: 92 % of control
T/C (dose: 200.0 mg/kg/injection, schedule: Q01DX001 (ip), vehicle: saline with Tween-80): 108 % of control
T/C [9]: 98 % of control and 116 % of control
T/C [12]: 88 % of control
T/C [6]: 97 % of control and 99 % of control
T/C [13]: 106 % of control
T/C (dose: 400.0 mg/kg/injection, schedule: Q01DX001 (ip), vehicle: saline with Tween-80): 96 % of control
T/C [14]: 91 % of control
T/C [7]: 90 % of control
T/C [15]: 94 % of control

COC(=O)C(CCC1CCCCN1)(c1ccccc1)c1ccccc1 (stereo not drawn)
T/C (dose: 35.0 mg/kg/injection, schedule: Q01DX009 (ip), vehicle: saline): 112 % of control and 119 % of control
T/C [2]: 120 % of control
T/C (dose: 110.0 mg/kg/injection, schedule: Q01DX009 (ip), vehicle: saline): 96 % of control

C=CCN(CC=C)C(=S)NC(=O)c1ccccc1
T/C [16]: 110 % of control
T/C [17]: 104 % of control

CCC(C)(C)C(=O)OCc1ccccc1
T/C [18]: 105 % of control
T/C [10]: 94 % of control
T/C [12]: 94 % of control and 111 % of control
T/C [14]: 103 % of control

Cc1[nH]c2c(O)ccc(O)c2c1C
T/C [19]: 106 % of control
T/C [20]: 97 % of control
T/C [21]: 106 % of control

Clc1ccccc1C[P+](c1ccccc1)(c1ccccc1)c1ccccc1
T/C (dose: 12.5 mg/kg/injection, schedule: Q01DX001 (ip), vehicle: saline): 92 % of control
T/C (dose: 25.0 mg/kg/injection, schedule: Q01DX001 (ip), vehicle: saline): 106 % of control
T/C (dose: 50.0 mg/kg/injection, schedule: Q01DX001 (ip), vehicle: saline): 100 % of control

NC(=O)Nc1ccc(SCC(=O)O)cc1
T/C [10]: 106 % of control
T/C [12]: 95 % of control
T/C [14]: 113 % of control

O=C1c2ccccc2C(=O)c2cc(S(=O)(=O)O)ccc21
T/C [11]: 95 % of control
T/C [13]: 95 % of control
T/C [15]: 95 % of control

CCOc1ccc(Nc2nc(=O)[nH]c3ccccc23)cc1CN(CCCl)CCCl
T/C [1]: 104 % of control
T/C [3]: 100 % of control
T/C [4]: 111 % of control
T/C [22]: 95 % of control and 111 % of control
T/C [23]: 95 % of control

Cc1ccc([N+](=O)[O-])cc1N=C=O
T/C [16]: 87 % of control
T/C (dose: 100.0 mg/kg/injection, schedule: Q04DX003 (ip), vehicle: Klucel (hydroxypropylcellulose) (HPC)): 96 % of control
T/C [17]: 91 % of control
T/C (dose: 200.0 mg/kg/injection, schedule: Q04DX003 (ip), vehicle: Klucel (hydroxypropylcellulose) (HPC)): 97 % of control
T/C (dose: 400.0 mg/kg/injection, schedule: Q01DX009 (ip), vehicle: Klucel (hydroxypropylcellulose) (HPC)): 97 % of control
T/C (dose: 400.0 mg/kg/injection, schedule: Q04DX003 (ip), vehicle: Klucel (hydroxypropylcellulose) (HPC)): 97 % of control

CCC1(Cc2ccccc2)C(=O)NC(=S)N(C)C1=O (stereo not drawn)
T/C [24]: 106 % of control

O=C(O)C12C3CCC(O3)C1(C(=O)O)C1CCC2O1 (stereo not drawn)
T/C [10]: 104 % of control
T/C [12]: 104 % of control
T/C [14]: 104 % of control

CC1(C)CC(OP(OC2CC(C)(C)N(O)C(C)(C)C2)OC2CC(C)(C)N(O)C(C)(C)C2)CC(C)(C)N1O
T/C (dose: 100.0 mg/kg/injection, schedule: Q01DX001 (ip), vehicle: water): 100 % of control
T/C (dose: 200.0 mg/kg/injection, schedule: Q01DX001 (ip), vehicle: water): 94 % of control
T/C (dose: 400.0 mg/kg/injection, schedule: Q01DX001 (ip), vehicle: water): 94 % of control

O=C(C[n+]1ccccc1)CC(O)(C(F)(F)F)C(F)(F)F
T/C [11]: 104 % of control
T/C [13]: 103 % of control
T/C [15]: 98 % of control

Cc1ccc(OCC(N)=O)cc1
T/C [18]: 100 % of control
T/C [10]: 113 % of control
T/C [12]: 103 % of control

COc1ccccc1C1OC1C(=O)O (stereo not drawn)
T/C [19]: 102 % of control
T/C [20]: 94 % of control
T/C [21]: 103 % of control

CN(C)CCCNCC(=O)Nc1ccc(S(=O)(=O)c2ccc([N+](=O)[O-])cc2)cc1
T/C [24]: 104 % of control
T/C (dose: 150.0 mg/kg/injection, schedule: Q01DX001 (ip), vehicle: saline): 104 % of control

CC[N+](C)(C)CCCNC(=O)C12CC3CC(CC(C3)C1)C2
T/C [1]: 99 % of control
T/C [3]: 96 % of control

Cc1cc(N(CCCl)CCCl)ccc1C=Nc1cccnc1
T/C (dose: 50.0 mg/kg/injection, schedule: Q01DX001 (ip), vehicle: other): 100 % of control
T/C (dose: 100.0 mg/kg/injection, schedule: Q01DX001 (ip), vehicle: other): 100 % of control
T/C (dose: 200.0 mg/kg/injection, schedule: Q01DX001 (ip), vehicle: other): 92 % of control
T/C (dose: 400.0 mg/kg/injection, schedule: Q01DX001 (ip), vehicle: other): 94 % of control

CC(=O)OC1CCCCC1c1cccc(C)c1 (stereo not drawn)
T/C [25]: 110 % of control
T/C [26]: 102 % of control
T/C (dose: 400.0 mg/kg/injection, schedule: Q04DX003 (ip), vehicle: acetone): 98 % of control

CC(C)c1cccc2ccccc12
T/C [25]: 95 % of control
T/C [26]: 88 % of control

CC1(C)OC2OC(C(O)CO)C(O)C2O1 (stereo not drawn)
T/C [4]: 86 % of control
T/C [22]: 107 % of control
T/C [23]: 90 % of control

COc1ccc(CC(=O)O)c(OC)c1
T/C (dose: 100.0 mg/kg/injection, schedule: Q01DX007 (ip), vehicle: saline with Tween-80): 98 % of control
T/C (dose: 100.0 mg/kg/injection, schedule: Q04DX003 (ip), vehicle: saline): 94 % of control
T/C (dose: 200.0 mg/kg/injection, schedule: Q01DX007 (ip), vehicle: saline with Tween-80): 95 % of control
T/C (dose: 200.0 mg/kg/injection, schedule: Q04DX003 (ip), vehicle: saline): 99 % of control
T/C (dose: 400.0 mg/kg/injection, schedule: Q04DX003 (ip), vehicle: saline): 94 % of control

O=NN(CCCl)C(=O)Nc1ccc(CC(=O)O)cc1
T/C (dose: 8.0 mg/kg/injection, schedule: Q01DX001 (ip), vehicle: carboxymethylcellulose (CMC)): 154 % of control
T/C (dose: 12.0 mg/kg/injection, schedule: Q01DX001 (ip), vehicle: carboxymethylcellulose (CMC)): 189 % of control
T/C (dose: 18.0 mg/kg/injection, schedule: Q01DX001 (ip), vehicle: carboxymethylcellulose (CMC)): 226 % of control
T/C (dose: 26.0 mg/kg/injection, schedule: Q01DX001 (ip), vehicle: carboxymethylcellulose (CMC)): 236 % of control

COc1ccc2[nH]c3c(c(=O)c2c1)CCCC3
T/C (dose: 50.0 mg/kg/injection, schedule: Q01DX001 (ip), vehicle: carboxymethylcellulose (CMC)): 101 % of control
T/C (dose: 100.0 mg/kg/injection, schedule: Q01DX001 (ip), vehicle: carboxymethylcellulose (CMC)): 95 % of control
T/C (dose: 200.0 mg/kg/injection, schedule: Q01DX001 (ip), vehicle: carboxymethylcellulose (CMC)): 100 % of control
T/C (dose: 400.0 mg/kg/injection, schedule: Q01DX001 (ip), vehicle: carboxymethylcellulose (CMC)): 97 % of control
